Measurements taken from patent publication US6774143B1, “Method for treating cells resistant to antineoplastic agents” (Novartis AG, priority 2003, dated 2004).
Values after ≈ are worked out from the molar mass of the structure shown. Like-named read-outs stand apart in the source and are kept apart here.

Key:
[1] = tested on: MIP 101 human colon tumor xenograft; assay: Subcutaneous MIP 101 colon tumor model in athymic nude mice; format: in vivo; conditions: for fate of the animals: all animals
From the text: All cell lines that are used in animal studies are free of Mycoplasma contamination (Rapid Detection System by Gen-Probe, Inc., San Diego, Calif.) and viral contamination (MAP testing by MA BioServices, Inc., Rockville, Md.). The HCT-15 human colon tumor cell line is purchased from the American Type Culture Collection, Rockville, Md., Accession Number ATCC CCL 225. The MIP 101 human colon tumor cell line is obtained from Dr. R. Kramer (Bristol Meyers Squibb) and was previously described (Niles R M, et al. Cancer Invest. 1987;5(6):545-52). These cells are Pgp-1 (human Pgp) overexpressors, making the cells resistant to paclitaxel. All cell lines are propagated and expanded in RPMI 1640 medium containing 10% heat-inactivated FBS (Life Technologies, Grand Island, N.Y.). Cell expansions for implantation are performed in T225 tissue culture flasks. Cells are harvested at 70-90% confluency, washed once with HBSS containing 10% FBS, and are suspended in plain HBSS.
Outbred athymic (nu/nu) female mice (“Hsd:Athymic Nude-nu” from Harlan Sprague Dawley, Indianapolis, Ind.) are anesthetized with Metofane (Mallinckrodt Veterinary, Inc., Mundelein, Ill.,). A cell suspension (100 μL) containing 1×10^6 cells is then injected sc into the right axillary (lateral) region of each animal. Tumors are allowed to grow until a volume of approximately 100 mm^3 was achieved. At this point, mice bearing tumors are sorted into groups of eight for the study. The sorting process produced groups balanced with respect to mean and range of tumor size.
Discodermolide is isolated from the sponge Discodermia dissoluta using the methods of (Gunasekera S P, et al. supra). Multiple batches of compound of similar purity (all>95% pure, as determined by mass spectrometry, and nuclear magnetic resonance analysis) are used throughout the various studies. Solid discodermolide is dissolved in pure ethanol to create a stock solution which is diluted just before dosing with Cremophor EL (Crm) and D5W to a final concentration of 16.7% Cremophor EL, 8.3% ethanol and 75% D5W. The compound is administered intravenously (iv). In the first study discodermolide is tested against both tumors at five different dosing schedules: (i.) 30 mg/kg dosed as two 15 mg/kg injections on day 1 of the experiment, (ii.) 30 mg/kg dosed as three 10 mg/kg injections on days 1, 2, and 3, (iii.) 15 mg/kg dosed as a single injection on day 1, (iv.) 20 mg/kg dosed as a 15 mg/kg injection on day 1, followed by a 5 mg/kg injection on day 11, and (v.) 10 mg/kg dosed as a 7.5 mg/kg injection on day 1 followed by a 2.5 mg/kg injection on day 11. In the second study discodermolide is dosed as one injection on the first day of the experiment, at 2.5 mg/kg, 5 mg/kg, 7.5 mg/kg, 10 mg/kg, 12.5 mg/kg, or 15 mg/kg. In addition the 7.5 mg/kg injection on day 1 followed by a 2.5 mg/kg injection on day 11 is repeated from the first study. The actual doses, regimens and routes of administration used for the specific models are discussed in each section separately. Positive control animals receive clinical formulations of paclitaxel (TAXOL) diluted 4-fold with D5W and administered iv once daily for five consecutive days. Vehicle control for paclitaxel is administered according to paclitaxel's schedule. In the first study vehicle controls for discodermolide (16.7% Cremophor EL, 8.3% ethanol and 75% D5W) are administered as three daily injections on days 1, 2, and 3, or as two injections on days 1, and 11. In the second study vehicle control for discodermolide is administered as a single injection on day 1.
Tumors are measured, and individual animal body weights are recorded once weekly. Standard experiments are conducted for 3 full weeks from the initial dosing.
Antitumor activity is expressed as % T/C (comparing Δ tumor volumes for treatment group to vehicle control group). […]

[2] = tested on: 1A9PTX22 cells (β-tubulin mutation); assay: In vitro cytotoxicity assay (MTT); format: cell-based, human
Description: 1A9 and 1A9PTX22 cells are plated in 96-well plates at 5×10^4 cells/well, plced in a tissue culture incubator and allowed to attach overnight. The next morning, the number of viable cells in the “time 0” plate (3 wells for each cell line) is determined using an MTT assay (Alley M C, et al., Cancer Res. 1988, 48:589-601).
At the same time drugs are added in serial, 10-fold dilutions, to the experimental plates. Corresponding vehicles are added to control plates. Experimental and control plates are then incubated in the tissue culture incubator for 72 hours. After the incubation the number of viable cells is determined in each plate using the MTT assay. IC50s (defined as a concentration of a given compound causing 50% inhibition of cell growth) are determined by comparing cell growth in the drug-treated plate (T−T0) to the cell growth in the corresponding control plate (C−T0). For each experiment results are calculated using average numbers from two sets of plates.
Discodermolide is isolated from the sponge Discodermia dissoluta using the method of Gunasekera SP (supra). Multiple batches of compound of similar purity (all>95% pure, as determined by mass spectrometry, and nuclear magnetic resonance analysis) are used throughout the various studies. For the in vitro cytotoxicity assays all compounds are dissolved in DMSO and are added to the plates with cells to obtain desired concentrations. […] Paclitaxel is purchased from Sigma/Aldrich, (St. Louis, Mo.). For the in vivo hollow fiber assay, solid discodermolide is dissolved in pure ethanol to create a stock solution which is diluted just before dosing with Cremophor EL and D5W to a final concentration of 16.7% Cremophor EL, 8.3% ethanol and 75% D5W. The compound is administered to mice as a single, 15 mg/kg iv injection. Positive control animals receive clinical formulations of paclitaxel (TAXOL) diluted 4-fold with D5W (12.5% Cremophor El, 12.5% ethanol and 75% D5W final concentrations) and administered iv, at 15 mg/kg, once daily for five consecutive days. Vehicle controls are administered according to the corresponding drug schedules.

[3] = first study, 7.5 mg/kg day 1 + 2.5 mg/kg day 11
[4] = first study, discodermolide iv single 15 mg/kg injection on day 1
[5] = first study, two 15 mg/kg injections on day 1 (30 mg/kg total)
[6] = second study, 7.5 mg/kg day 1 + 2.5 mg/kg day 11

In the case of `C=C/C=C\[C@H](C)[C@H](OC(N)=O)[C@@H](C)[C@H](O)[C@@H](C)C/C(C)=C\[C@H](C)[C@@H](O)[C@@H](C)/C=C\[C@@H](O)C[C@@H]1OC(=O)[C@H](C)[C@@H](O)[C@H]1C` [discodermolide, (+)-Discodermolide], the “inhibition of tumor growth (in words)” value ([1]; MIP 101 xenograft, athymic nude mice) is reported as “statistically significant (p<0.01) and reproducible inhibition of tumor growth”, the T/C [1, 3] is reported as 38% and the body weight loss [1, 3] is reported as 21.3%. The “fate of the animals” value ([1]; first study, 15 mg/kg day 1 + 5 mg/kg day 11) was “sacrificed in the beginning of the third week of the experiment due to the excessive body weight loss”, the “fate of the animals” value ([1]; first study, 30 mg/kg as three 10 mg/kg injections on days 1, 2, 3) was “die on day 5 of the experiment” and the T/C [1, 4] was 36%. For the same molecule, the body weight loss [1, 4] was 18.9%, the T/C [1, 5] was 24% and the body weight loss [1, 5] was 23.4%. For the same molecule, the T/C [1, 6] was 35%, the body weight loss [1, 6] was 11.4% and the deaths [1, 6] was “One animal in that group dies from apparent drug toxicity”. The body weight loss ([1]; second study, single injection 2.5 mg/kg) was 7.9%, the T/C ([1]; second study, single injection 2.5 mg/kg day 1) was 59% and the body weight loss ([1]; second study, single injection 5 mg/kg) was 10.2%. The T/C ([1]; second study, single injection 5 mg/kg day 1) was 57%, the body weight loss ([1]; second study, single injection 7.5 mg/kg) was 13.2% and the T/C ([1]; second study, single injection 7.5 mg/kg day 1) was 46%. The body weight loss ([1]; second study, single injection 10 mg/kg) was 18.7%, the T/C ([1]; second study, single injection 10 mg/kg day 1) was 37% and the body weight loss ([1]; second study, single injection 12.5 mg/kg) was 15.5%. For the same molecule, the T/C ([1]; second study, single injection 12.5 mg/kg day 1) was 22%, the body weight loss ([1]; second study, single injection 15 mg/kg) was 11.7% and the T/C ([1]; second study, single injection 15 mg/kg day 1) was 18%. It also gave an IC50 ([2]; 1A9PTX22 cells, 72 hours, second experiment) of 3 ng/mL (≈ 0.00505 µM) and an IC50 ([2]; Homo sapiens, 1A9/ptx-22, 72 h) of 3 ng/mL (≈ 0.00505 µM).

`CC(=O)O[C@H]1C(=O)[C@@]2(C)[C@H]([C@H](OC(=O)c3ccccc3)[C@]3(O)C[C@H](OC(=O)[C@H](O)[C@@H](NC(=O)c4ccccc4)c4ccccc4)C(C)=C1C3(C)C)[C@]1(OC(C)=O)CO[C@@H]1C[C@@H]2O` [paclitaxel, reference compound] gave a T/C ([1]; first study, paclitaxel 15 mg/kg daily for the first 5 days) of 82%, a T/C ([1]; second study, paclitaxel iv once daily for five days, p<0.01) of 54% and an IC50 ([2]; Homo sapiens, 1A9/ptx-22, 72 h, 1A9PTX22 cells, 72 hours, first experiment, read-out: IC50) of 15 ng/mL (≈ 0.0176 µM). The IC50 ([2]; Homo sapiens, 1A9/ptx-22, 72 h, 1A9PTX22 cells, 72 hours, second experiment, read-out: IC50) was 9 ng/mL (≈ 0.0105 µM) and the “fold resistance of 1A9PTX22 versus parental 1A9” value ([2]; from IC50s of the two in vitro experiments) was 20 fold.
